Data reported in paper PMC5026067, “Substrate Fragmentation for the Design of M. tuberculosis CYP121 Inhibitors” (Chemmedchem, 2016).
Read-outs that look alike come from different tables or passages of the source.

Tests used:
Assay type in all cases: binding
Mtb CYP121 [1] = molecular target: T1, Mtb CYP121 (Mycobacterium tuberculosis, UniProt P9WPP7); test: UV/vis optical titration (Soret shift)
From the text: UV/vis optical titration (Soret shift) on Mtb CYP121

CYP124 = CYP124 (Mycobacterium tuberculosis, UniProt P9WPP3); test: UV/vis Soret shift; conditions: […] ligand, […] DMSO, weak blue shift
CYP142 = CYP142 (Mycobacterium tuberculosis, UniProt P9WPL5); test: UV/vis Soret shift; conditions: 2000 µM; […] ligand, […] DMSO; type II
From the text: UV/vis Soret shift on CYP142

Mtb CYP121 [2] = molecular target: T1, Mtb CYP121; test: thermal shift assay
From the text: thermal shift assay on Mtb CYP121

T1 sequence (P9WPP7 whole entry): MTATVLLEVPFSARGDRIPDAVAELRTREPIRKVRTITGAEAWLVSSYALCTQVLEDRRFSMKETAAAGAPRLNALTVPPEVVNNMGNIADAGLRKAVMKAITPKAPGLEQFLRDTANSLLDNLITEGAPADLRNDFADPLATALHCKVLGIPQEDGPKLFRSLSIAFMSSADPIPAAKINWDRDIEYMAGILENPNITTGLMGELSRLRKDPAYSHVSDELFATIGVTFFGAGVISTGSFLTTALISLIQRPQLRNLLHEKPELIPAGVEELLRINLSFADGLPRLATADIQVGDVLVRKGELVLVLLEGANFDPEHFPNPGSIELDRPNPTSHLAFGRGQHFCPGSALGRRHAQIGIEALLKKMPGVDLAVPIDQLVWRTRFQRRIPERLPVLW
Chain of CYP124 (P9WPP3 whole entry): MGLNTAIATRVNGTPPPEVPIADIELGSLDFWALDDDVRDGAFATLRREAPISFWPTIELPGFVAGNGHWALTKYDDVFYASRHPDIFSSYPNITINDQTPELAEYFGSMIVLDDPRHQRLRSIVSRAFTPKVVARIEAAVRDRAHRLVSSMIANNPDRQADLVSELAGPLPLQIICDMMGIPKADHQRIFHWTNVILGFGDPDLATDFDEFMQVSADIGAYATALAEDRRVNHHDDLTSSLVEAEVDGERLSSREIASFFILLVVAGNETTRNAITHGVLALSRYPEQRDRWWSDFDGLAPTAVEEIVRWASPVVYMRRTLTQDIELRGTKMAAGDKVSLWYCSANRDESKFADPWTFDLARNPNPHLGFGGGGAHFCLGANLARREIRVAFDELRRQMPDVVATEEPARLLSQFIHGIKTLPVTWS
Chain of CYP142 (P9WPL5 whole entry): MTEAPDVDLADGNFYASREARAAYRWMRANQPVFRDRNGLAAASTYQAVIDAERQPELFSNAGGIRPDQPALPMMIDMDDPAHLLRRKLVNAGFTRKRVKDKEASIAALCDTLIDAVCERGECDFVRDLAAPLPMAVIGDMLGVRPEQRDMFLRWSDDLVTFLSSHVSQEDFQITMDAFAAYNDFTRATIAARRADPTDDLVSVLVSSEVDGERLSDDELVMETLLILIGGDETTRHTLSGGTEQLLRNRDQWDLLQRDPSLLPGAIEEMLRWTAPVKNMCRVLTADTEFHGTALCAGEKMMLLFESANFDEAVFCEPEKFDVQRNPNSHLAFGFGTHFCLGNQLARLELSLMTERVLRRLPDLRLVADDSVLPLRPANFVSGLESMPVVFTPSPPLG

Structure (SMILES)	Kd (Mtb CYP121 [1]; read-out: K d [μM]^[b]) [µM]	further results
N[C@H](Cc1c[nH]c2ccccc12)C(=O)NCCc1ccccc1 [compound 8, acyclic cWF-8]	270 ± 22	–
NC(Cc1c[nH]c2ccc(Br)cc12)C(=O)SCCc1ccccc1 (racemic) [compound 31, compound 31 (5-bromo-tryptophan phenethyl-thioester)]	16 ± 2.4	CYP124 (CYP124; 10 µM): −2 nm
N[C@H](Cc1c[nH]c2ccccc12)C(=O)SCCc1c[nH]c2ccccc12 [compound 17, indole-substituted thioester 17]	45 ± 4.4	–
N[C@@H](Cc1c[nH]c2ccccc12)C(=O)OCCc1ccccc1 [compound 3, L-phenethyl ester 3]	200 ± 19	–
N[C@H](Cc1c[nH]c2ccccc12)C(=O)NCCc1c[nH]c2ccccc12 [compound 9, acyclic cWW-9]	110 ± 6	CYP124 (CYP124; 100 µM): −2 nm
N[C@H](Cc1c[nH]c2ccccc12)C(=O)SCC1CC(c2ccccc2)=NO1 (stereo partly shown) [compound 25, phenyl-isoxazole-substituted compound 25]	35 ± 4.2	–
COC(=O)[C@H](N)Cc1c[nH]c2ccccc12 [1a, D-tryptophan methyl ester]	840 ± 88	CYP142 (CYP142): +2 nm
N[C@H](Cc1c[nH]c2ccccc12)c1nc(Cc2c[nH]c3ccccc23)cs1 [compound 18, indole-substituted thiazole 18]	52 ± 3.1	–
NC(Cc1ccccc1Br)C(=O)SCCc1ccccc1 (stereo not shown) [compound 30, 2-bromophenylalanine derivative 30]	30 ± 3.8	–
N[C@H](Cc1c[nH]c2ccccc12)C(=S)NCCc1ccccc1 [compound 12, thioamide 12]	150 ± 18	–
N[C@H](Cc1c[nH]c2ccccc12)C(=O)OC/C=C/c1ccccc1 [compound 20, compound 20 (trans-alkene)]	120 ± 21	–
N[C@H](Cc1c[nH]c2ccccc12)c1nc(-c2ccccc2)cs1 [compound 13, thiazole 13]	44 ± 3.6	–
NC(Cc1c[nH]c2ccc(O)cc12)C(=O)SCCc1ccccc1 (racemic) [compound 26, compound 26 (5-hydroxy indole)]	130 ± 9.3	–
NC(Cc1c[nH]c2ncccc12)C(=O)SCCc1ccccc1 (racemic) [compound 27, aza-tryptophan analogue 27]	110 ± 9.1	–
N[C@H](Cc1c[nH]c2ccccc12)C(=O)NCCc1ccc(O)cc1 [compound 7, acyclic cYW-7]	260 ± 14	–
NC(Cc1c[nH]c2ccc(Br)cc12)c1nc(-c2ccccc2)cs1 (racemic) [compound 32, compound 32 (5-bromo-tryptophan phenyl-thiazole)]	32 ± 2.5	–
COC(=O)[C@H](N)Cc1ccc(O)cc1 [1b, D-tyrosine methyl ester]	–	ΔTm at 5000 µM (Mtb CYP121 [2]): 3 °C
N[C@H](Cc1c[nH]c2ccccc12)C(=O)OCCc1ccccc1 [compound 2, phenethyl ester 2]	200 ± 17	–
N[C@H](Cc1c[nH]c2ccccc12)c1nc(-c2ccccc2)c[nH]1 [compound 14, imidazole 14]	–	Kd (Mtb CYP121 [1]): 530 ± 100 µM
